Here are results for two molecules from PMC9103105 (2022).

Experiment [1] has as its system aptamer 1.12.2 (DNA, aptamer) GATCGGGTGTGGGTGGCGTAAAGGGAGCATCGGACA
Kind of experiment: ITC. The settings on record: 100 mM Na+ (acetate), 10 mM MgCl2, 10 mM CaCl2; 20 mM Tris-acetate pH 8.4, 25 °C; one-site model.

In experiment [2] the test system is aptamer–ssDNA {6–15} complex (DNA, duplex) GATCGGGTGTGGGTGGCGTAAAGGGAGCATCGGACA/CACCCACACC
Kind of experiment: circular dichroism. Particulars: 100 mM Na+ (acetate), 10 mM MgCl2, 10 mM CaCl2; 20 mM Tris-acetate pH 8.4, room temperature; 1 µM complex, up to 10 µM OTA. (In general: CD spectra are sensitive to the conformation of chiral molecules.)

For experiment [3], the system named is aptamer 1.12.2 (DNA, aptamer) GATCGGGTGTGGGTGGCGTAAAGGGAGCATCGGACA
As to the kind of experiment: fluorescence anisotropy competition. The settings on record: 100 mM Na+ (acetate), 10 mM MgCl2, 10 mM CaCl2, 20 mM Tris-acetate pH 8.4, 90 nM aptamer. (In fluorescence polarisation assays a small probe gives low polarisation when free and higher when bound to something large.)

For experiment [4], the system named is Mut2 (DNA, aptamer) GATCGGGTGTGGGTGGCGTAAAGGGAGCATCGG
Kind of experiment: fluorescence anisotropy titration. The settings on record: 100 mM Na+ (acetate), 10 mM MgCl2, 10 mM CaCl2; 20 mM Tris-acetate pH 8.4, room temperature.

For experiment [5], the system named is aptamer 1.12.2 (DNA, aptamer) GATCGGGTGTGGGTGGCGTAAAGGGAGCATCGGACA
As to the kind of experiment: fluorescence anisotropy titration. Particulars: 100 mM Na+ (acetate), 10 mM MgCl2, 10 mM CaCl2; 20 mM Tris-acetate pH 8.4, room temperature.

By KD is commonly meant the equilibrium constant for the complex coming apart. Low readings indicate higher affinity, high ones lower affinity.

In experiment [1], `C[C@@H]1Cc2c(Cl)cc(C(=O)N[C@@H](Cc3ccccc3)C(=O)O)c(O)c2C(=O)O1` came in with a KD of 0.131 ± 0.032 µM. Besides, in experiment [2], the binding entry is listed as “no”. Moreover, the L50 in experiment [3] (tracer 5 nM OTA-Flu displaced) amounted to 106.2 ± 6.4 nM. In experiment [3] (tracer OTA-Flu displaced), this molecule had a KI of 0.0363 ± 0.0021 µM.

Turning to `C[C@@H]1Cc2c(Cl)cc(C(=O)N[C@@H](Cc3ccccc3)C(=O)NCc3c(O)ccc4c3Oc3cc(O)ccc3C43OC(=O)c4ccccc43)c(O)c2C(=O)O1` (stereo partly drawn), the values for the dissociation constant KD in experiment [4] and in experiment [5] were 0.192 µM and 0.183 ± 0.014 µM, respectively.
